This is an account of results in patent US9273057B2 (Bristol-Myers Squibb Company, priority 2012, dated 2016).

The structures appear in SMILES notation. pIC50: −log10 of the molar value.

The target in this experiment is CK2A1 (CK2α/β) (Homo sapiens, UniProt P68400). Nature of the experiment: CK2 kinase assay, CK2A1 (CK2α/β). Conditions: Table A; read-out: CK2A1 (CK2α/β) (IC50). Type of experiment: biochemical.
Sequence of CK2A1 (CK2α/β) (P68400 whole entry, species assumed): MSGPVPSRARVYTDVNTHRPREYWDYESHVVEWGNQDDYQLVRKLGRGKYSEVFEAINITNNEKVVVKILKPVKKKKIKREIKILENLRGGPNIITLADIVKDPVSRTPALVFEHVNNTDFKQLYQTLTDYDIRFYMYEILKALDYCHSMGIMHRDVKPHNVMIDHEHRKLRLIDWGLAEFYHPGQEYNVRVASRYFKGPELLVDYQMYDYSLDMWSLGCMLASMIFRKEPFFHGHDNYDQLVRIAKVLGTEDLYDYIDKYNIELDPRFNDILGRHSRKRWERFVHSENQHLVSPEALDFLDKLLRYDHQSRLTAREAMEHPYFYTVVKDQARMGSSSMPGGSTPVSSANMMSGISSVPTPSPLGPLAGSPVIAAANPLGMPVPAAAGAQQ
Sequence of CK2A1 (CK2α/β) (P67870 whole entry partner, species assumed): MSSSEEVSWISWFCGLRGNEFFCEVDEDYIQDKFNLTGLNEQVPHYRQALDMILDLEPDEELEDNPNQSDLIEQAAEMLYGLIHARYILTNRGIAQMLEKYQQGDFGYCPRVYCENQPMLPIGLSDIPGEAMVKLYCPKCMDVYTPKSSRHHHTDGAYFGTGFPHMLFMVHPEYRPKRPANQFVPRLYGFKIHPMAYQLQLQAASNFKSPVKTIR
On to `N#Cc1cc(Nc2nc(NC3CC3)c3ncc(C#N)n3n2)c(F)cc1OCCN1CCOCC1` [Example 416, 2-((5-cyano-2-fluoro-4-(2-morpholinoethoxy)phenyl)amino)-4-(cyclopropylamino)imidazo[2,1-f][1,2,4]triazine-7-carbonitrile], for which the pIC50 is 9.17.
The figure for `N#Cc1cc(Nc2nc(NC3CC3)c3ncc(C#N)n3n2)c(F)cc1OC[C@@H]1COCCN1` [Example 417, (S)-2-((5-cyano-2-fluoro-4-(morpholin-3-ylmethoxy)phenyl)amino)-4-(cyclopropylamino)imidazo[2,1-f][1,2,4]triazine-7-carbonitrile] is 9.51; for `N#Cc1cc(Nc2nc(NC3CC3)c3ncc(C#N)n3n2)c(OCCN2CCOCC2)cc1F` [Example 421, 2-((5-cyano-4-fluoro-2-(2-morpholinoethoxy)phenyl)amino)-4-(cyclopropylamino)imidazo[2,1-f][1,2,4]triazine-7-carbonitrile] it is 9.21; for `N#Cc1cc(Nc2nc(NC3CC3)c3ncc(C#N)n3n2)c(OCCN2CCOCC2)cc1OCCN1CCOCC1` [Example 422, 2-((5-cyano-2,4-bis(2-morpholinoethoxy)phenyl)amino)-4-(cyclopropylamino)imidazo[2,1-f][1,2,4]triazine-7-carbonitrile] it is 8.56.
For `N#Cc1cc(Nc2nc(NC3CC3)c3ncc(C#N)n3n2)c(OC[C@@H]2COCCN2)cc1F` [Example 424, (S)-2-((5-cyano-4-fluoro-2-(morpholin-3-ylmethoxy)phenyl)amino)-4-(cyclopropylamino)imidazo[2,1-f][1,2,4]triazine-7-carbonitrile] the value was 8.29.
For `N#Cc1cc(Nc2nc(NC3CC3)c3ncc(C#N)n3n2)c(Cl)c(OC2CCN(C3COC3)CC2)c1` [Example 425, 2-((2-chloro-5-cyano-3-((1-(oxetan-3-yl)piperidin-4-yl)oxy)phenyl)amino)-4-(cyclopropylamino)imidazo[2,1-f][1,2,4]triazine-7-carbonitrile] the value was 9.14.
Turning to `CC1(N2CCC(Oc3cc(C#N)cc(Nc4nc(NC5CC5)c5ncc(C#N)n5n4)c3Cl)CC2)COC1` [Example 427, 2-((2-chloro-5-cyano-3-((1-(3-methyloxetan-3-yl)piperidin-4-yl)oxy)phenyl)amino)-4-(cyclopropylamino)imidazo[2,1-f][1,2,4]triazine-7-carbonitrile], the pIC50 was 9.11.
The figure for `CN1CCN(c2cc(Cl)c(Nc3nc(NC4CC4)c4ncc(C#N)n4n3)cc2C#N)CC1` [Example 432, 2-((2-chloro-5-cyano-4-(4-methyl-1-piperazinyl)phenyl)amino)-4-(cyclopropylamino)imidazo[2,1-f][1,2,4]triazine-7-carbonitrile] is 8.54; for `N#Cc1cc(Nc2nc(NC3CC3)c3ncc(C#N)n3n2)c(Cl)c(OC[C@@H]2COCCN2)c1` [Example 439, (S)-2-((2-chloro-5-cyano-3-(morpholin-3-ylmethoxy)phenyl)amino)-4-(cyclopropylamino)imidazo[2,1-f][1,2,4]triazine-7-carbonitrile] it is 9.12; for `N#Cc1cc(Nc2nc(NC3CC3)c3ncc(C#N)n3n2)c(Cl)c(OCC2CNCCO2)c1` (stereo not shown) [Example 441, 2-((2-chloro-5-cyano-3-(morpholin-2-ylmethoxy)phenyl)amino)-4-(cyclopropylamino)imidazo[2,1-f][1,2,4]triazine-7-carbonitrile] it is 8.93.
The figure for `CN1CCC2CN(c3cc(C#N)cc(Nc4nc(NC5CC5)c5ncc(C#N)n5n4)c3Cl)CCC21` (stereo not shown) [Example 443, 2-((2-chloro-5-cyano-3-(1-methylhexahydro-1H-pyrrolo[3,2-c]pyridin-5(6H)-yl)phenyl)amino)-4-(cyclopropylamino)imidazo[2,1-f][1,2,4]triazine-7-carbonitrile] is 8.53; for `N#Cc1cc(Nc2nc(NC3CC3)c3ncc(C#N)n3n2)c(Cl)c(N2CCC3C(CCN3C3COC3)C2)c1` (stereo not shown) [Example 444, 2-((2-chloro-5-cyano-3-(1-(oxetan-3-yl)hexahydro-1H-pyrrolo[3,2-c]pyridin-5(6H)-yl)phenyl)amino)-4-(cyclopropylamino)imidazo[2,1-f][1,2,4]triazine-7-carbonitrile] it is 9.12.
On to `COC(=O)N1CCC2CN(c3cc(C#N)cc(Nc4nc(NC5CC5)c5ncc(C#N)n5n4)c3Cl)CCC21` (stereo not shown) [Example 445, methyl 5-(2-chloro-5-cyano-3-((7-cyano-4-(cyclopropylamino)imidazo[2,1-f][1,2,4]triazin-2-yl)amino)phenyl)octahydro-1H-pyrrolo[3,2-c]pyridine-1-carboxylate], for which the pIC50 is 8.54.
For `CC(=O)N1CCC2CN(c3cc(C#N)cc(Nc4nc(NC5CC5)c5ncc(C#N)n5n4)c3Cl)CCC21` (stereo not shown) [Example 446, 2-((3-(1-acetylhexahydro-1H-pyrrolo[3,2-c]pyridin-5(6H)-yl)-2-chloro-5-cyanophenyl)amino)-4-(cyclopropylamino)imidazo[2,1-f][1,2,4]triazine-7-carbonitrile] the value was 8.46; for `N#Cc1cc(Nc2nc(NC3CC3)c3ncc(C#N)n3n2)c(Cl)c(N2CCC3C(CCN3C[C@@H](O)CF)C2)c1` (stereo partly drawn) [Example 448, 2-((2-chloro-5-cyano-3-(1-((R)-3-fluoro-2-hydroxypropyl)hexahydro-1H-pyrrolo[3,2-c]pyridin-5(6H)-yl)phenyl)amino)-4-(cyclopropylamino)imidazo[2,1-f][1,2,4]triazine-7-carbonitrile], 9.06.
For `N#Cc1cc(Nc2nc(NC3CC3)c3ncc(C#N)n3n2)c(Cl)c(N2CCC3C(CCN3C[C@H](O)CF)C2)c1` (stereo partly drawn) [Example 449, 2-((2-chloro-5-cyano-3-(1-((S)-3-fluoro-2-hydroxypropyl)hexahydro-1H-pyrrolo[3,2-c]pyridin-5(6H)-yl)phenyl)amino)-4-(cyclopropylamino)imidazo[2,1-f][1,2,4]triazine-7-carbonitrile] the value was 9.04; for `CC(C)(O)CN1CCC2CN(c3cc(C#N)cc(Nc4nc(NC5CC5)c5ncc(C#N)n5n4)c3Cl)CCC21` (stereo not shown) [Example 450, 2-((2-chloro-5-cyano-3-(1-(2-hydroxy-2-methylpropyl)hexahydro-1H-pyrrolo[3,2-c]pyridin-5(6H)-yl)phenyl)amino)-4-(cyclopropylamino)imidazo[2,1-f][1,2,4]triazine-7-carbonitrile], 8.82.
`N#Cc1cc(Nc2nc(NC3CC3)c3ncc(C#N)n3n2)c(Cl)c(N2CC[C@@H]3[C@@H](CCN3[C@H]3CS(=O)(=O)C[C@@H]3O)C2)c1` [Example 452, 2-((2-chloro-5-cyano-3-(1-((3R,4R)-4-hydroxy-1,1-dioxidotetrahydrothiophen-3-yl)hexahydro-1H-pyrrolo[3,2-c]pyridin-5(6H)-yl)phenyl)amino)-4-(cyclopropylamino)imidazo[2,1-f][1,2,4]triazine-7-carbonitrile]: the pIC50 was 9.09.
For `N#Cc1cc(Nc2nc(NC3CC3)c3ncc(C#N)n3n2)c(Cl)c(N2CC3CNCC3C2)c1` (stereo not shown) [Example 455, 2-((2-chloro-5-cyano-3-(hexahydropyrrolo[3,4-c]pyrrol-2(1H)-yl)phenyl)amino)-4-(cyclopropylamino)imidazo[2,1-f][1,2,4]triazine-7-carbonitrile] the value was 9.31.
